# Data as given in patent US20110166191A1, “3-(2-amino-ethyl)-5-(3-cyclohexyl-propylidene)-thiazolidine-2,4-dione and its derivatives as multiple signaling pathway inhibitors and for the treatment of cancer” (priority 2010, published 2011).
# Legend:
# Format in all cases: cell-based
# phosphorylation of ERK = test: Western blot analysis of p-ERK in U937 cells; settings: 3 μM, PMA/TPA 200 nM stimulation
# Experimental: (§1) FIG. 1. U937 cells were treated with Formula II prepared as described in Example 4 [i.e. 3-(2-aminoethyl)-5-(3-cyclohexylpropylidene)thiazolidine-2,4-dione] for 1 h, then stimulated with PMA (200 nM) for 30 min. Lysates were analyzed for p-Akt, p-MEK, p-ERK and α-tubulin by western blot analysis.
# (§2) Cells (5×10^5 per ml) were treated with various concentrations of test compound at 37° C. (5% CO2) for 3 hrs, then stimulated with TPA at a final concentration of 200 nM for 20 min. Samples from whole-cell pellets were prepared and 30 μg protein for each condition was subjected to SDS-PAGE, transferred onto a PVDF membrane, and blocked with 5% fat-free milk for 30 min. The membrane is probed with primary antibodies overnight at 4° C. followed by incubation with horseradish peroxidase-labeled anti-mouse IgG (1:5000, BD Biosciecne). The immunoreactive bands are detected by chemiluminescence methods (Pierce) and visualized on Kodak Omat film. The following primary antibodies were used: phospho-p44/42 MAPK (ERK1/2, Thr202/Tyr204), p44/42 MAPK, phospho-p90RSK (Thr359/Ser363), RSK1/RSK2/RSK3 (Cell Signaling). Blots were reprobed with antibodies against α-tubulin to ensure equal loading and transfer of proteins.
# DU145 cells = test: Cell apoptosis assay (annexin V/PI flow cytometry); settings: 24 hrs
# Experimental: (§3) FIG. 2. Indicated cancer cells were treated with Formula II synthesized as described in Example 4, 3-(2-aminoethyl)-5-(3-cyclohexylpropylidene)thiazolidine-2,4-dione, at indicated concentrations for 24 hrs, then stained with Annexin-V/PI and analyzed by flow cytometry.
# (§4) Apoptosis was measured by flow cytometry using annexin V/propidium iodide (PI) as staining reagent. Briefly, after treatment with test compound of varying concentrations for varying intervals (4, 8, 18, 36 hrs), cells were washed twice with cold PBS and then resuspended in 1× binding buffer (10 mM HEPES [N-2-hydroxyethylpiperazine-N′-2-ethanesulfonic acid]/NaOH, pH 7.4, 140 mM […], 2.5 mM CaCl2). The cells were then incubated with annexin V-fluorescein isothiocyanate (FITC) (BD PharMingen, San Diego, Calif.) and 5 μg/mL propidium iodide (PI), and incubated for 15 minutes at room temperature in the dark per the manufacturer's instructions. The samples were analyzed by flow cytometry using a Becton Dickinson FACScan (Becton Dickinson, San Jose, Calif.) within 1 hr to determine the percentage of cells displaying annexin V staining (early apoptosis) or both annexin V and PI staining (late apoptosis).
# M12 cells = test: Cell apoptosis assay (annexin V/PI flow cytometry); settings: 24 hrs
# Experimental: as §3, §4
# U937 cells [1] = test: Cell apoptosis assay (annexin V/PI flow cytometry); settings: 24 hrs
# Experimental: as §3, §4
# U937 cells [2] = test: Cell cycle analysis (PI flow cytometry); settings: 24 h
# Experimental: FIG. 3. Effects of Formula II and Formula III on U937 cell cycle. Cells were treated with compounds prepared as described in Examples 4 and 8 [i.e. 3-(2-aminoethyl)-5-(3-cyclohexylpropylidene)thiazolidine-2,4-dione and 3-(2-aminoethyl)-5-(3-phenyl-propylidene)-thiazolidine-2,4-dione, respectfully] for 24 hrs, then cells were stained with PI and analyzed by flow cytometry.
# After treatment of cells with test compound of varying concentrations for 24 hrs, cells were pelleted at 4° C., resuspended, fixed at 4° C. with 67% ethanol overnight, and treated on ice with a PI solution containing 3.8 mM Na citrate, 0.5 mg/mL RNase A (Sigma Chemical Co.), and 0.01 mg/mL PI (Sigma) for 3 hrs. Cell cycle analysis was performed by flow cytometry using Verity Winlist software (Topsham, Me.).
# phosphorylation of Akt = test: Western blot analysis of p-Akt in U937 cells; settings: PMA/TPA 200 nM stimulation
# Experimental: as §1, §2
# SK-MEL-2 = test: NCI 60 cell line panel screening; settings: Homo sapiens, Melanoma, read-out: Growth Inhibition (GI50)
# Excerpt: (§5) Compound 3-(2-aminoethyl)-5-(3-cyclohexylpropylidene)thiazolidine-2,4-dione was screened at five concentrations in National Cancer Institute (NCI) 60-cell line panel according to NCI's protocol for growth inhibition.
# HCT-116 = test: NCI 60 cell line panel screening; settings: Homo sapiens, Colon Cancer, read-out: Growth Inhibition (GI50)
# Excerpt: as §5
# SK-MEL-5 = test: NCI 60 cell line panel screening; settings: Homo sapiens, Melanoma, read-out: Growth Inhibition (GI50)
# Excerpt: as §5
# A498 = test: NCI 60 cell line panel screening; settings: Homo sapiens, Renal Cancer, read-out: Growth Inhibition (GI50)
# Excerpt: as §5
# SW-620 = test: NCI 60 cell line panel screening; settings: Homo sapiens, Colon Cancer, read-out: Growth Inhibition (GI50)
# Excerpt: as §5
# HOP-62 = test: NCI 60 cell line panel screening; settings: Homo sapiens, Non-Small Cell Lung Cancer, read-out: Growth Inhibition (GI50)
# Excerpt: as §5
# UACC-62 = test: NCI 60 cell line panel screening; settings: Homo sapiens, Melanoma, read-out: Growth Inhibition (GI50)
# Excerpt: as §5
# K-562 = test: NCI 60 cell line panel screening; settings: Homo sapiens, K562, Leukemia, read-out: Growth Inhibition (GI50)
# Excerpt: as §5
# CAKI-1 = test: NCI 60 cell line panel screening; settings: Homo sapiens, Renal Cancer, read-out: Growth Inhibition (GI50)
# Excerpt: as §5
# A549/ATCC = test: NCI 60 cell line panel screening; settings: Homo sapiens, Non-Small Cell Lung Cancer, read-out: Growth Inhibition (GI50)
# Excerpt: as §5
# TK-10 = test: NCI 60 cell line panel screening; settings: Homo sapiens, Renal Cancer, read-out: Growth Inhibition (GI50)
# Excerpt: as §5
# UACC-257 = test: NCI 60 cell line panel screening; settings: Homo sapiens, Melanoma, read-out: Growth Inhibition (GI50)
# Excerpt: as §5
# MCF7 = test: NCI 60 cell line panel screening; settings: Homo sapiens, Breast Cancer, read-out: Growth Inhibition (GI50)
# Excerpt: as §5
# T-47D = test: NCI 60 cell line panel screening; settings: Homo sapiens, T47D, Breast Cancer, read-out: Growth Inhibition (GI50)
# Excerpt: as §5
# IGROV1 = test: NCI 60 cell line panel screening; settings: Homo sapiens, IGROV-1, Ovarian Cancer, read-out: Growth Inhibition (GI50)
# Excerpt: as §5
# SF-539 = test: NCI 60 cell line panel screening; settings: Homo sapiens, CNS Cancer, read-out: Growth Inhibition (GI50)
# Excerpt: as §5
structure (smiles),measurement,setting,value
"NCCN1C(=O)S/C(=C\CCC2CCCCC2)C1=O [Example 4, 3-(2-aminoethyl)-5-(3-cyclohexylpropylidene)thiazolidine-2,4-dione]","phosphorylation of ERK (p-ERK, western blot)",phosphorylation of ERK,significantly inhibited the phosphorylation of ERK
same,apoptosis (Annexin-V/PI),DU145 cells,minimal apoptotic effects
same,apoptosis (Annexin-V/PI),M12 cells,significantly and dose-dependently induced apoptosis
same,apoptosis (Annexin-V/PI),U937 cells [1],significantly and dose-dependently induced apoptosis
same,effect on cell cycle,U937 cells [2],arrested U937 cells at G2/M phase
same,"phosphorylation of Akt (p-Akt, western blot)",phosphorylation of Akt,dose dependently inhibited the phosphorylation of Akt
same,GI50,SK-MEL-2,1900 nM
same,GI50,HCT-116,1670 nM
same,GI50,SK-MEL-5,1700 nM
same,GI50,A498,1570 nM
same,GI50,SW-620,1850 nM
same,GI50,HOP-62,3250 nM
same,GI50,UACC-62,2140 nM
same,GI50,K-562,2590 nM
same,GI50,CAKI-1,1640 nM
same,GI50,A549/ATCC,2500 nM
same,GI50,TK-10,2010 nM
same,GI50,UACC-257,1690 nM
same,GI50,MCF7,3130 nM
same,GI50,T-47D,2040 nM
same,GI50,IGROV1,1960 nM
same,GI50,SF-539,1830 nM
